Laboratory results reported in patent publication US20250151724A1, “Liquid Soil Treatments Containing Choline” (Harrell's, LLC, priority 2023, published 2025).

System: creeping bentgrass
Test: Experiment No. 1: growth chamber pot trial, foliar GB and choline under heat and mild drought stress
Assay type: in vivo
Conditions: for increase of chlorophyll content: day 56, vs control; for Root Viability: TTC method
Procedure: A growth chamber pot trial was conducted as follows. […] The choline used in this study was supplied in the form of choline chloride from Sigma-Aldrich, Inc. (St. Louis, MO). […] These conditions simulated summer putting green stress. The treatments were as follows: • 1. […] GB at 0.5 oz./1,000 ft^2 every 14 days. • 3. GB at 1.0 oz./1,000 ft^2 every 14 days. • 4. […] The rate and source of fertilization for treatments #2-7 was the same as treatment #1 (fertilized control), so all seven treatments received identical fertility input. […] The term “low rate” is used in this description of Experiment No. 1 to refer to 0.5 oz./1,000 ft^2 treatments, while the term “high rate” is used to refer to 1.0 oz./1,000 ft^2 treatments. […] Photochemical efficiency (PE). Photochemical Efficiency was measured with a chlorophyll fluorometer (OS-50II, Opti-Sciences, Inc., Hudson, NH) biweekly based on the Fv/Fm, which is the ratio of variable chlorophyll fluorescence (Fv) to maximum chlorophyll fluorescence (Fm). […] Chlorophyll content. After clipping yields were weighed, leaf tissues were ground into powder, and chlorophyll was extracted in pure acetone content for 72 hours, and the absorbance was measured using a spectrophotometer. • e. Leaf carotenoids were extracted in the same sample as for chlorophyll content and carotenoids were measured using a spectrophotometer (Zhang et al., 2005). • f. Leaf proline content. […] After centrifuging, the supernatant was collected, and proline was analyzed according to Wu et al., 2017. • g. Root viability. […] Root growth characteristics. At the end of trial, roots from each pot were washed and cleaned. Roots were scanned using WinRHIZOTM technology (Regent Instruments Inc., Quebec, Canada), and root length, root surface area, root diameter, and root volume were calculated. (Zhang et al., 2017). • i. Root biomass of each pot was determined at the end of the trial. Roots were dried at 65° C. for 72 hours before being weighed.

C[N+](C)(C)CCO.[Cl-] [Choline, choline chloride]
increase of chlorophyll content (0.5 oz): 32.4% | Clippings dry wt (0.5 oz/1000 ft^2, Total): 0.691bc g/pot | Carotenoids (0.5 oz/1000 ft^2, day 0): 1.32a mg/g FW | Chlorophyll (0.5 oz/1000 ft^2, day 0): 3.50a mg/g FW | Leaf color (1-9, 9 = dark green) (0.5 oz/1000 ft^2, day 0): 7.5a | PE (Fv/Fm) (0.5 oz/1000 ft^2, day 0): 0.763a | Proline (0.5 oz/1000 ft^2, day 0): 20.1a mg/g FW | Carotenoids (0.5 oz/1000 ft^2, day 14): 1.32a mg/g FW | Chlorophyll (0.5 oz/1000 ft^2, day 14): 3.51a mg/g FW | Clippings dry wt (0.5 oz/1000 ft^2, day 14): 0.149b g/pot | Leaf color (1-9, 9 = dark green) (0.5 oz/1000 ft^2, day 14): 7.3abc | PE (Fv/Fm) (0.5 oz/1000 ft^2, day 14): 0.751a | Proline (0.5 oz/1000 ft^2, day 14): 46.1a mg/g FW | Carotenoids (0.5 oz/1000 ft^2, day 28): 1.18ab mg/g FW | Chlorophyll (0.5 oz/1000 ft^2, day 28): 3.09ab mg/g FW | Clippings dry wt (0.5 oz/1000 ft^2, day 28): 0.151b g/pot | Leaf color (1-9, 9 = dark green) (0.5 oz/1000 ft^2, day 28): 6.9a | PE (Fv/Fm) (0.5 oz/1000 ft^2, day 28): 0.676ab | Proline (0.5 oz/1000 ft^2, day 28): 24.3b mg/g FW | Carotenoids (0.5 oz/1000 ft^2, day 42): 1.12a mg/g FW | Chlorophyll (0.5 oz/1000 ft^2, day 42): 2.76ab mg/g FW | Clippings dry wt (0.5 oz/1000 ft^2, day 42): 0.159a g/pot | Leaf color (1-9, 9 = dark green) (0.5 oz/1000 ft^2, day 42): 7.1a | PE (Fv/Fm) (0.5 oz/1000 ft^2, day 42): 0.631b | Proline (0.5 oz/1000 ft^2, day 42): 30.2c mg/g FW | Carotenoids (0.5 oz/1000 ft^2, day 56): 1.12a mg/g FW | Chlorophyll (0.5 oz/1000 ft^2, day 56): 2.98a mg/g FW | Clippings dry wt (0.5 oz/1000 ft^2, day 56): 0.233ab g/pot | Leaf color (1-9, 9 = dark green) (0.5 oz/1000 ft^2, day 56): 7.0a | PE (Fv/Fm) (0.5 oz/1000 ft^2, day 56): 0.649a | Proline (0.5 oz/1000 ft^2, day 56): 79.6a mg/g FW | Root Biomass (0.5 oz/1000 ft^2, end of trial): 1.72ab g/pot | Root Diameter (0.5 oz/1000 ft^2, end of trial): 0.192a mm | Root Length (0.5 oz/1000 ft^2, end of trial): 39.7ab mm/cm^3 | Root SA (surface area) (0.5 oz/1000 ft^2, end of trial): 2.40ab cm^3/cm^3 | Root Volume (0.5 oz/1000 ft^2, end of trial): 11.6a dm^3/cm^3 | Root Viability (0.5 oz/1000 ft^2, end of trial): 0.739bcd A490/g FW | increase of chlorophyll content (1.0 oz): 22.2% | Clippings dry wt (1.0 oz/1000 ft^2, Total): 0.842ab g/pot | Carotenoids (1.0 oz/1000 ft^2, day 0): 1.31a mg/g FW | Chlorophyll (1.0 oz/1000 ft^2, day 0): 3.46a mg/g FW | Leaf color (1-9, 9 = dark green) (1.0 oz/1000 ft^2, day 0): 7.5a | PE (Fv/Fm) (1.0 oz/1000 ft^2, day 0): 0.777a | Proline (1.0 oz/1000 ft^2, day 0): 19.8a mg/g FW | Carotenoids (1.0 oz/1000 ft^2, day 14): 1.33a mg/g FW | Chlorophyll (1.0 oz/1000 ft^2, day 14): 3.51a mg/g FW | Clippings dry wt (1.0 oz/1000 ft^2, day 14): 0.187ab g/pot | Leaf color (1-9, 9 = dark green) (1.0 oz/1000 ft^2, day 14): 7.5a | PE (Fv/Fm) (1.0 oz/1000 ft^2, day 14): 0.738ab | Proline (1.0 oz/1000 ft^2, day 14): 43.5ab mg/g FW | Carotenoids (1.0 oz/1000 ft^2, day 28): 1.23a mg/g FW | Chlorophyll (1.0 oz/1000 ft^2, day 28): 3.31a mg/g FW | Clippings dry wt (1.0 oz/1000 ft^2, day 28): 0.183ab g/pot | Leaf color (1-9, 9 = dark green) (1.0 oz/1000 ft^2, day 28): 7.3a | PE (Fv/Fm) (1.0 oz/1000 ft^2, day 28): 0.718ab | Proline (1.0 oz/1000 ft^2, day 28): 24.6b mg/g FW | Carotenoids (1.0 oz/1000 ft^2, day 42): 1.17a mg/g FW | Chlorophyll (1.0 oz/1000 ft^2, day 42): 2.93a mg/g FW | Clippings dry wt (1.0 oz/1000 ft^2, day 42): 0.223a g/pot | Leaf color (1-9, 9 = dark green) (1.0 oz/1000 ft^2, day 42): 7.1a | PE (Fv/Fm) (1.0 oz/1000 ft^2, day 42): 0.683ab | Proline (1.0 oz/1000 ft^2, day 42): 43.8ab mg/g FW | Carotenoids (1.0 oz/1000 ft^2, day 56): 1.06a mg/g FW | Chlorophyll (1.0 oz/1000 ft^2, day 56): 2.75ab mg/g FW | Clippings dry wt (1.0 oz/1000 ft^2, day 56): 0.249a g/pot | Leaf color (1-9, 9 = dark green) (1.0 oz/1000 ft^2, day 56): 7.0a | PE (Fv/Fm) (1.0 oz/1000 ft^2, day 56): 0.664a | Proline (1.0 oz/1000 ft^2, day 56): 67.6a mg/g FW | Root Biomass (1 oz/1000 ft^2, end of trial): 1.57ab g/pot | Root Diameter (1 oz/1000 ft^2, end of trial): 0.192a mm | Root Length (1 oz/1000 ft^2, end of trial): 39.0ab mm/cm^3 | Root SA (surface area) (1 oz/1000 ft^2, end of trial): 2.32ab cm^3/cm^3 | Root Volume (1 oz/1000 ft^2, end of trial): 11.0a dm^3/cm^3 | Root Viability (1 oz/1000 ft^2, end of trial): 1.019abc A490/g FW
